The record followed here is patent publication US20160090351A1, “INHIBITORS OF DEUBIQUITINATING PROTEASES” (BRANDEIS UNIVERSITY, priority 2013, published 2016).

Molecules are shown by their SMILES. Bounds are passed on as bounds.

Assay [1] has as its system DUBs. In words: A-ring SAR: total ubiquitin pool in HEK293T lysates overexpressing ubiquitin-HA, western blot. In kind it is biochemical, human. The conditions noted are these: 1.5 h, compounds numbered as in FIG. 3. The protocol:
HEK293T lysates overexpressing ubiquiting-HA were treated with the stated compound for 1.5 h and the total ubiquitin pool was analyzed by western blot (HA). […] Similar data were obtained for Cos-1 lysates.

The test system of assay [2] is USP9x, USP19, USP7/8, USP28/15. The assay can be described thus: HA-Ub-VS activity profiling in cell lysates, USPs. In kind it is biochemical, human. The protocol: (§1) HA-ubiquitin vinylsulfone (HA-Ub-VS) irreversibly labels DUBs by modifying the catalytic cysteine residue Inhibition of the DUB prevents HA-Ub-VS labeling and the band is. […] The interaction with UCHL1/3 is reversible.
(§2) Lysate labeling assay on untransfected cells (1.5 mg/mL) was run with the stated concentration of inhibitor (or 1% DMSO control) for between 19-60 mins. After this time HA-Ub-VS (1.5-0.7 μM) was added and incubated for 19 mins. After this time reaction mixture (9 μL) was removed and quenched in 2× (final concentration) reducing loading buffer. For recovery experiments, a lysate of 6 mg/mL was treated with saturating compound C14 (250 μM) and incubated for 40 mins. Afterward, the lysate was diluted to 0.6 mg/mL (final concentration of inhibitor 25 μM) in lysis buffer (final volume 100 μL), then HA-Ub-VS was added. Aliquots (15 μL) were removed at the stated time (5-119 mins) and immediately quenched in 2× (final concentration) reducing loading buffer. For all HA-Ub-VS experiments samples in loading buffer were heated only to 37° C. prior to loading on a gel. This assay is highly susceptible to concentration of lysate and HA-Ub-VS. Cell experiments were carried out as above with some modifications. For Cos-1 and MCF-7 cells, after trypsinization, media with compound was added to give a final concentration of compound equal to that used in the assay. Cell pellets were lysed on an ice/salt bath with a temperature of −5° C. and lysate was centrifuged for only 5 mins.
(§3) HA-Ub-VS is an irreversible inhibitor of DUBs that is widely used in activity profiling. If the DUB inhibitors react to form a thiocarbonylated enzyme as proposed (FIG. 29B), then HA-Ub-VS labeling will be blocked. Treatment of HEK 293T lysates with HA-Ub-VS produced the characteristic pattern of protein bands at 250, 150-100, 45, 38 and 36 kDa, generally ascribed to USP9x (292 kDa), USP19 (146 kDa), USP7/8 (128 and 127 kDa, respectively), USP28/15 (122 and 112 kDa, respectively), UCH-L5 (38 kDa), UCH-L3 (26 kDa) and UCH-L1 (25 kDa) as depicted in FIG. 31.
(§4) The effect of diphenylcarbonates on HA-Ub-VS labeling was assessed to investigate the selectivity of DUB inhibition. Lysates were preincubated with diphenyl carbonates (75 μM), then treated with HA-Ub-VS (FIG. 31A). […] These C17 and C22-sensitive DUBs are most likely USP9x, USP19, USP7/8 and UCHL5, based on molecular weight (FIGS. 31B and 38). The identity of USP7 was confirmed by immunoblotting (FIG. 38F). […] Similar behavior was observed on Cos-1 cell lysates (FIG. 38B).

For the next assay, the system named is HEK 293T cells. In words: accumulation of K48- and K63-linked Ub species in HEK 293T cells. In kind it is cell-based, human. The conditions noted are these: 50 μM, 2 h. On the procedure:
FIG. 32 depicts data showing that diphenyl carbonates inhibit DUBs in HEK 293T cells. A. Viability of HEK 293T cells assessed by the propidium iodide exclusion method: diphenyl carbonate (100 μM), bortezomib (V, 20 μM) and G5 (2 μM). N≧3, mean+/−s.d. B. HEK 293T cells were treated with the stated compounds (50 μM) for 2 h and then assayed for the accumulation of K48-linked Ub species. C. As in A, but K63-linked Ub was assayed. D. HEK 293T cells were treated with C14, C15, C17, C18 (100 μM) or DMSO for 2 hours, then harvested, lysed and treated with HA-Ub-VS. After 30 min, lysates were analyzed by SDS-PAGE and probed for HA, tubulin and actin. An intervening lane was removed for clarity. E. HEK 293T cells expressing Ub-G76V-GFP were treated with diphenyl carbonates (100 μM), bortezomib (20 μM) and G5 (2 μM). […] N>3, Mean+/−s.d. See also FIG. 39. […]

Assay [3] relates to DUBs. The assay can be described thus: decomposition of high molecular weight ubiquitinated proteins (HMW-Ub) in lysates of HEK 293T cells expressing HA-Ub. In kind it is biochemical, human. The conditions noted are these: for DUB inhibitory activity, SAR in words: relative to C4 or parent analog; for stabilization of the HMW-Ub pool: HEK 293T HA-Ub lysates, 37° C. The protocol: FIG. 30 depicts data showing that diphenylcarbonates inhibit the decomposition of high molecular weight ubiquitinated proteins (HMW-Ub). Lysates were prepared from HEK 293T cells expressing HA-ubiquitin. Samples were incubated at 37° C. and reactions were quenched by the addition of reducing Laemmli buffer. HMW-Ub was assessed by SDS-PAGE and immunoblotting with anti-HA antibody. A. Representative immunoblots measuring the decomposition of HMW-Ub in lysates treated with either the DMSO vehicle, G5 (10 μM) or C4 (500 μM). B. Plot of the decomposition of HMW-Ub in lysates treated with DMSO and C4 (500 μM) (N=2; error bars denote range). C. Inhibition of HMW-Ub decomposition by diphenylcarbonates. Lysates were treated with diphenylcarbonates (50 μM). “-” denotes no treatment; D, 1% DMSO vehicle; IU1, an USP14-specific inhibitor; Bort, bortezomib, a proteasome inhibitor. D. Representative decomposition of HMW-Ub after 2 h incubation in the presence of varying concentrations of C4. See also FIG. 36. E. Quantitation of D. The values of EC50 reported in FIG. 29B are the average and S.E.M. of at least 3 independent experiments. See also FIG. 37 and FIG. 38.
Cells overexpressing HA-ubiquitin were prepared as above. Pellets were typically stored at −80° C. until required, at which time they were thawed on ice. Cell lysis was performed in lysis buffer using a Dounce homogenizer (10 strokes, with grinding, on ice: typical yield approx. 2-5 mg protein per transfected T75 flask for HEK 293T cells; 1-3 mg protein from a T75 flask for Cos-1). Crude lysate was centrifuged at 17000 g for 10 min at 4° C., after which time the concentration of the lysate was normalized to 1 mg/mL. The lysate was aliquoted into PCR strip tubes (typical volumes 75-50 μL) and compound in DMSO was added to this to give a final concentration of DMSO of 1%. Tubes were briefly centrifuged, overlaid with Chill-out wax (50 μL) and placed in a PCR machine at 37° C. with heated lid set to 37° C. Aliquots (9 μL) were removed at the stated times and immediately quenched in (2× final concentration) reducing (dithiothreitol) loading buffer and frozen (−19° C.) till required. Western blot analysis was carried out using standard methods. Samples were resolved by SDS-PAGE, transferred to PVDF [(0.45 μm) (Towbin buffer, tank apparatus, 90 V 1 hour, then overnight at 30 V, 4° C.)] then blocked in 15% milk in TBS-T HS (100 mM Tris HCl, pH 7.6, 500 mM NaCl, 0.5% […]) for at least 2 hours at RT. Afterward, membrane was washed in TBS-T HS then probed with anti HA-HRP (1:18000) for 1.33 hours at RT. Membrane was washed 3 times in TBS-T HS (15 mins) then once in TBS (15 mins) and exposed to ECL II and visualized using blue biofilm. […] When required, membranes were stripped in 100 mM glycine pH 4, 500 mM NaCl, 1% SDS, 5 mM BME, at 55° C. for 19 mins, then analyzed.
Lysates were prepared from HEK 293T cells expressing N-terminally HA-tagged ubiquitin (HA-Ub) to facilitate the observation of ubiquitinated proteins. In the absence of a DUB inhibitor, the HMW-Ub pool decomposed with a half-life of 34 min (FIG. 30A,B). […] Similar results were obtained in lysates prepared from Cos-1 cells expressing HA-Ub.

The next assay has as its system UCH-L5, UCH-L3, UCH-L1. In words: HA-Ub-VS activity profiling in cell lysates, UCH-Ls. In kind it is biochemical, human. On the procedure:
as §1, §2, §3, §4

Another assay deals with T1, USP9x (Homo sapiens, UniProt Q93008).
T1 construct: endogenous in cells; host or cells: K562 cell lysate
In words: HA-Ub-VS labeling in K562 cell lysates. In kind it is biochemical. Particulars: compound 40 minutes, then HA-Ub-VS (1.5 μM) 20 minutes. The protocol:
HA-Ub-VS is commonly used to label DUBs in cell lysates. […] A. and B. K562 cell lysates were treated with compound for 40 minutes prior to activity labeling with HA-Ub-VS (1.5 μM) for 20 minutes. Samples were analyzed by SDS-PAGE and immunoblotting with anti-HA antibody. C. […] Values were derived by fitting to the in Prism.

[4] abbreviates: HEK 293T lysates, 75 μM, 30 minutes preincubation.

T1 sequence (Q93008 whole entry): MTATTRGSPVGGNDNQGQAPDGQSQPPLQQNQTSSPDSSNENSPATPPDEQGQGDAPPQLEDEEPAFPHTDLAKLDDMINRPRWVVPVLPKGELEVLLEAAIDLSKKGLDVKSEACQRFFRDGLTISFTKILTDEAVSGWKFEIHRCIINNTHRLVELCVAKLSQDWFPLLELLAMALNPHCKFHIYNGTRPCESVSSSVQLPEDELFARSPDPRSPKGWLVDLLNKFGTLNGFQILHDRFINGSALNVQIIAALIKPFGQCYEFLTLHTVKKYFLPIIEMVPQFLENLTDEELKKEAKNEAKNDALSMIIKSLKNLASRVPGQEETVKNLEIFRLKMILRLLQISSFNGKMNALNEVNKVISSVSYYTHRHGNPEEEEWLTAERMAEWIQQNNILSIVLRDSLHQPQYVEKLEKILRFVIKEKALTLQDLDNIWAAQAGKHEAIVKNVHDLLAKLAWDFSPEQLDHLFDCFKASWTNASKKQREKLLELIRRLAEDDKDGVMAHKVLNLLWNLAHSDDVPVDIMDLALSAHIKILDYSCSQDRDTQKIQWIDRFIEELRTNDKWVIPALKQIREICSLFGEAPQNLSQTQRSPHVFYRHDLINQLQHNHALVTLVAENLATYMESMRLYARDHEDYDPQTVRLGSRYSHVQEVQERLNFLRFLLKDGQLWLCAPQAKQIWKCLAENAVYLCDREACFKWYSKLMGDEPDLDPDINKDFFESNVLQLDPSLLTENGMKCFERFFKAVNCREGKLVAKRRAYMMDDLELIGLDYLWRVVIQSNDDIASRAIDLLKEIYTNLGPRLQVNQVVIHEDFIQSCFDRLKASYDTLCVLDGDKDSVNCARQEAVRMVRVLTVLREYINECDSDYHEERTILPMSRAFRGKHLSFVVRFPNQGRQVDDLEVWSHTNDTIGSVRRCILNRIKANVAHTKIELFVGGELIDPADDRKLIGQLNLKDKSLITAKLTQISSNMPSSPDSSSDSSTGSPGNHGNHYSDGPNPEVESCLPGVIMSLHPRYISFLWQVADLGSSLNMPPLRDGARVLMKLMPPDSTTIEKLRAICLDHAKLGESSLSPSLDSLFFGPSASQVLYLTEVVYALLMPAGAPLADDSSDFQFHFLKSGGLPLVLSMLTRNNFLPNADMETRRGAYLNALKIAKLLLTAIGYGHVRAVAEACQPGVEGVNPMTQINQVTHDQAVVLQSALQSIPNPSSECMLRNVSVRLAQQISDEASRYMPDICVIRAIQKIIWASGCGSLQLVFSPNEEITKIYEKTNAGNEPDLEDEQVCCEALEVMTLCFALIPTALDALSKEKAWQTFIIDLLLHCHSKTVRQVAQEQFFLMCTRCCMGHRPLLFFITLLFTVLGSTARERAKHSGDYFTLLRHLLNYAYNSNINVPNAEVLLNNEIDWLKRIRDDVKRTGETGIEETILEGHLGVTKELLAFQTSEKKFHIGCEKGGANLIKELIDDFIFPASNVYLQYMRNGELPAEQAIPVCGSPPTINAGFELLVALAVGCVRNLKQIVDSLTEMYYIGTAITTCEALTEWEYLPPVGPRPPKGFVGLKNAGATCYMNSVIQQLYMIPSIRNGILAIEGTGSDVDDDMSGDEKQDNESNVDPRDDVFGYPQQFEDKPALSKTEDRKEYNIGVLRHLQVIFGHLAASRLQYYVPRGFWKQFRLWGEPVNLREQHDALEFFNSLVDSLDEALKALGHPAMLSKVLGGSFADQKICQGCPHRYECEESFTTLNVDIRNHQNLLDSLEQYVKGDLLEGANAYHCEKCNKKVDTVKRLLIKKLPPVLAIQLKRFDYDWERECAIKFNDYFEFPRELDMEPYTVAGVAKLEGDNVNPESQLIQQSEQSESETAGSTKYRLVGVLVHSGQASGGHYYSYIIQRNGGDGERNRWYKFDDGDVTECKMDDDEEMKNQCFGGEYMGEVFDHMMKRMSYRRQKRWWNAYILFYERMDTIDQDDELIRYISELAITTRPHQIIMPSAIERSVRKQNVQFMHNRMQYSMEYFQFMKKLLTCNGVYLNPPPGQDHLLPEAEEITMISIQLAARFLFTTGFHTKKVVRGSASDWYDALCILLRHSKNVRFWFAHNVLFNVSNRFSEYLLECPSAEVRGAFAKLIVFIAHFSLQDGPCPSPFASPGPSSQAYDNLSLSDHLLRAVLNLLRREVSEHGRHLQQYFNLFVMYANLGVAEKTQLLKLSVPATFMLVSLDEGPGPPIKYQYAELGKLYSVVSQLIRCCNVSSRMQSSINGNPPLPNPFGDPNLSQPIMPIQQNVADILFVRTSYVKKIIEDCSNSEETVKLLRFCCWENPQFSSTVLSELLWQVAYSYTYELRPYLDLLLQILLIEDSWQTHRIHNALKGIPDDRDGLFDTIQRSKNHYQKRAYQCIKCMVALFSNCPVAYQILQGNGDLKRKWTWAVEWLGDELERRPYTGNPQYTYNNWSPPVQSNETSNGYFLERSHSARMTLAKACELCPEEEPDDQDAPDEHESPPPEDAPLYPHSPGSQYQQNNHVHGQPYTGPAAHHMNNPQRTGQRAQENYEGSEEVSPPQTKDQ

As to `CC(C)(C)CNCc1ccc(OC(=O)Oc2ccc3ccccc3c2)cc1.Cl` [compound 11], in the assay on DUBs [1], the “inhibition (total ubiquitin pool)” value is recorded as “have some potency”.

For `N=C(N)NCc1ccc(OC(=O)Oc2ccc3ccccc3c2)cc1` [Compound C22], in assay [2] (setting [4]), the “HA-Ub-VS labeling of USPs” value was “decreased HA-Ub-VS labeling of several USPs”. Moreover, the “HA-Ub-VS labeling, dose response” value in assay [2] (at 12 μM) is recorded as “significantly inhibited the labeling of several high molecular weight proteins”. For the same compound, in the assay on HEK 293T cells, the “accumulation of K48-linked HMW-Ub” value was “failed to cause the accumulation of HMW-Ub”. Besides, the “DUB inhibitory activity, SAR in words” value with DUBs [3] is “efficacious”. In addition, the “HA-Ub-VS labeling of UCHL enzymes” value in the assay on UCH-L5, UCH-L3, UCH-L1 (setting [4]) was “relatively little effect on the UCHL enzymes”. Further, the “inhibition of UCH-L1/3/5, dose response” value with UCH-L5, UCH-L3, UCH-L1 (below 50 μM) is on record as “little inhibition of UCH-L1/3/5 was observed below 50 μM”.

Consider `NCc1ccc(CC(=O)Oc2ccccc2)cc1` [Compound C10], for which the “stabilization of the HMW-Ub pool” value in the assay with DUBs [3] was “nor the analogous esters (C9 and C10) stabilized HMW-Ub”.

With `Cc1ccc(OC(=O)Oc2ccc(CN)cc2)cc1` [Compound C12, 4-(aminomethyl)phenyl(4-methylphenyl)carbonate], the “DUB inhibitory activity, SAR in words” value in the assay with DUBs [3] is recorded as “had no effect on inhibitory activity”.

Regarding `CC(C)(C)OC(=O)NCc1ccc(OC(=O)Oc2ccc(Cl)cc2)cc1` [Compound C23, N-Boc 4-(aminomethyl)phenyl(4-chlorophenyl)carbonate], the “DUB inhibitory activity, SAR in words” value in the assay with DUBs [3] is recorded as “Inhibitory activity was not recovered”.

Turning to `NCc1ccc(OC(=O)Nc2ccccc2)cc1` [Compound C7], in the assay on DUBs [3], the “stabilization of the HMW-Ub pool” value was “Neither the analogous carbamates (C7 and C8, FIG. 30 and FIG. 36), nor the analogous esters (C9 and C10) stabilized HMW-Ub”.

As to `O=C(Oc1ccccc1)Oc1ccc(CNCc2ccc(Cl)cc2)cc1` [Compound C5], in the assay with DUBs [3], the “stabilization of the HMW-Ub pool” value was “inhibited the decomposition of the HMW-Ub pool” and the “DUB inhibitory activity, SAR in words” value is reported as “retained DUB inhibitory activity”.

For `NCc1ccc(OC(=O)Oc2ccc(F)cc2)cc1` [Compound C11, 4-(aminomethyl)phenyl(4-fluorophenyl)carbonate], the “DUB inhibitory activity, SAR in words” value in the assay with DUBs [3] is listed as “had no effect on inhibitory activity”.

Turning to `NCc1ccc(NC(=O)Oc2ccccc2)cc1` [Compound C8], the “stabilization of the HMW-Ub pool” value with DUBs [3] was “Neither the analogous carbamates (C7 and C8, FIG. 30 and FIG. 36), nor the analogous esters (C9 and C10) stabilized HMW-Ub”.

`CC(C)(C)OC(=O)NCc1ccc(NC(=S)Oc2ccccc2)cc1` [TCM23] gave an EC50 at USP9x of over 50 µM.

For `CC(C)(C)CNCc1ccc(OC(=O)Oc2ccc3ccccc3c2)cc1` [Compound C20], in the assay with HEK 293T cells, the “accumulation of K48-linked HMW-Ub” value is listed as “failed to cause the accumulation of HMW-Ub”. The “DUB inhibitory activity, SAR in words” value with DUBs [3] was “inhibitory activity was retained”.

In turn, `CC(C)(C)OC(=O)NCc1ccc(NC(=S)Oc2ccc(Cl)cc2)cc1` [TCM28] had an EC50 at USP9x of 45 ± 8 µM.

On to `CC(C)CNCc1ccc(OC(=O)Oc2ccc3ccccc3c2)cc1.Cl` [compound 10], for which the “inhibition (total ubiquitin pool)” value in the assay with DUBs [1] is given as “have some potency”.

With `CC(C)CNCc1ccc(OC(=O)Oc2ccc3ccccc3c2)cc1` [Compound C21], the “DUB inhibitory activity, SAR in words” value in the assay with DUBs [3] is listed as “somewhat deleterious”.

As for `NCc1ccc(OC(=O)Oc2ccccc2Cl)cc1` [Compound C16, 4-(aminomethyl)phenyl(2-chlorophenol)carbonate], in the assay on DUBs [3], the “DUB inhibitory activity, SAR in words” value was “improved potency relative to C4”.

As for `NCc1ccc(OC(=O)Cc2ccccc2)cc1` [Compound C9], in the assay with DUBs [3], the “stabilization of the HMW-Ub pool” value was “nor the analogous esters (C9 and C10) stabilized HMW-Ub”.

On to `CC(C)(C)OC(=O)NCc1ccc(OC(=O)Oc2ccccc2)cc1` [Compound C3], for which the “DUB inhibitory activity, SAR in words” value in the assay on DUBs [3] is “activity was lost”.

On to `COc1ccc(OC(=O)Oc2ccc(CN)cc2)cc1` [Compound C13, 4-(aminomethyl)phenyl(4-methoxyphenyl)carbonate], for which, in the assay on DUBs [3], the “DUB inhibitory activity, SAR in words” value is “had no effect on inhibitory activity”.

On to `CC(C)(C)OC(=O)NCc1ccc(OC(=O)Oc2ccc(Cl)cc2)cc1` [compound 16, N-Boc 4-(aminomethyl)phenyl(4-chlorophenyl)carbonate], for which, in the assay on DUBs [1], the “inhibition (total ubiquitin pool)” value is listed as “not an efficient inhibitor”.

`CC(C)(C)OC(=O)NCc1ccc(OC(=O)Oc2ccc3ccccc3c2)cc1` [Compound C19]: the “DUB inhibitory activity, SAR in words” value in the assay with DUBs [3] was “Inhibitory activity was not recovered”.
